Data published in patent US11634412B2, “3-phosphoglycerate dehydrogenase inhibitors and uses thereof” (Raze Therapeutics, Inc., priority 2016, dated 2023).

target: T1, Full length (FL) 3-Phosphoglycerate Dehydrogenase (PHGDH) (Homo sapiens, UniProt O43175); test: Full length (FL) PHGDH Diaphorase coupled assay (500 uM NAD); assay type: biochemical; conditions: full-length PHGDH 5 nM, 30° C. 60 minutes, resorufin fluorescence
T1 construct: Full length (FL) 3-Phosphoglycerate Dehydrogenase (PHGDH) Diaphorase coupled assay (500 uM NAD)
T1 sequence (O43175 1-533): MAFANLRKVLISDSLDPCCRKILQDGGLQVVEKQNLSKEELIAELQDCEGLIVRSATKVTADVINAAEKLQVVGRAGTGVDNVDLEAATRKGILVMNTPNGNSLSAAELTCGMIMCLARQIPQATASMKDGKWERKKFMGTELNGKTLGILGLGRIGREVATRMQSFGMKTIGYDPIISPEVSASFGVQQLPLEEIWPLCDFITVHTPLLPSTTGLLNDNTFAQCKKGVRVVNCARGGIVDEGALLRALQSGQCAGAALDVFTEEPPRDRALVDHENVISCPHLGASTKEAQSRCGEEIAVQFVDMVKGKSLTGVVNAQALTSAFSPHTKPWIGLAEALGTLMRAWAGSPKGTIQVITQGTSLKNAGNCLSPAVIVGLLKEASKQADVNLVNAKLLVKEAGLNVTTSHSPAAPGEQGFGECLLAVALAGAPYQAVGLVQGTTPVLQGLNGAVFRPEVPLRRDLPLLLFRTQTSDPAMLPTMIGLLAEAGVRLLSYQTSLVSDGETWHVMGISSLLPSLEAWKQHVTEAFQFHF
Protocol: Full length (FL) 3-Phosphoglycerate Dehydrogenase (PHGDH) Diaphorase coupled assay (500 uM NAD)
PHGDH activity was determined by detecting the NADH produced during the reaction. Diaphorase was used to catalyze the oxidation of NADH with the concomitant reduction of resazurin to the fluorescent product resorufin. Resorufin fluorescence quantitatively reflected the production of NADH by the PHGDH reaction. To drive the forward reaction, two enzymes in the serine synthesis pathway subsequent to PHGDH, Phosphoserine aminotransferase (PSAT1) and phosphoserine phosphatase (PSPH) were also added to the reaction.
Briefly, serial dilution of compounds were incubated in a volume of 20 μL in 384 well plates with the assay mixture containing 5 nM PHGDH, 500 nM PSAT1, 500 nM PSPH, 500 μM NAD^+, 80 uM 3-phosphoglycerate, 1 mM glutamate, 57 uM Resazurin and 0.2 mg/ml Diaphorase in assay buffer containing 50 mM Trisethanoloamine (TEA) pH8.0, 10 mM MgCl2, 0.01% Tween-20 and 0.05% Bovine Serum Albumin (BSA). The plate was then incubated at 30° C. for 60 minutes and resorufin fluorescence was measured at emission wavelength 598 nm following excitation at 525 nm. The positive control consisted of the complete reaction mixture with 4% DMSO and was set to 0% inhibition.

Compound	IC50 [nM]
CCCC(C(=O)O)c1ccc(C2(NC(=O)c3cc4c(Cl)c(Cl)c(OC)cc4n3C)CCOC2)cc1 (racemic) [I-17 e85]	1 to 1000
COc1cc2c(cc(C(=O)NC3(c4ccc(C(C(=O)O)C(C)C)cc4)CCOC3)n2C)c(Cl)c1Cl (racemic) [I-20 e83]	1 to 1000
Cc1cc(C(=O)O)ccc1C1(NC(=O)c2cc3c(Cl)c(Cl)ccc3n2C)COC1 [I-83 e50]	1 to 1000
COc1cc2c(cc(C(=O)NC3(c4ccc(C(=O)O)cc4Cl)COC3)n2C)c(Cl)c1F [I-44 e76]	1 to 1000
Cn1c(C(=O)NC2(c3ccc(C4(C(=O)O)CC4)cc3)CCOC2)cc2c(Cl)c(Cl)ccc21 (racemic) [I-59 e38]	1 to 1000
COc1ccc2c(cc(C(=O)NC3(c4ccc(C(C(=O)O)C5CCC(O)CC5)cc4)COC3)n2C)c1Cl (racemic) [I-160 e138, (±)-2-[4-[3-[(4-Chloro-5-methoxy-1-methyl-indole-2-carbonyl)amino]oxetan-3-yl]phenyl]-2-(4-hydroxycyclohexyl)acetic acid]	1 to 1000
COc1ccc2c(cc(C(=O)NC3(c4ccc(C(C(=O)O)C(C)C)cc4)COC3)n2C)c1Cl (racemic) [I-21 e127]	1 to 1000
Cn1c(C(=O)NC2(c3cccc(CC(=O)O)c3)CCOC2)cc2c(Cl)c(Cl)ccc21 (racemic) [I-119 e153, (±)-2-[3-[3-[(4,5-Dichloro-1-methyl-indole-2-carbonyl)amino]tetrahydrofuran-3-yl]phenyl]acetic acid]	1 to 1000
CC(C(=O)O)c1ccc(C2(NC(=O)c3cc4c(Cl)c(Cl)ccc4n3C)COC2)cc1 (racemic) [I-68 e58]	1 to 1000
CC(c1ccc(C2(NC(=O)c3cc4c(Cl)c(Cl)ccc4n3C)CCOC2)cc1)c1nnn[nH]1 (racemic) [I-52 e91]	1 to 1000
CCc1cc(C2(NC(=O)c3cc4c(Cl)c(Cl)ccc4n3C)CCOC2)ccc1C(=O)O (racemic) [I-88 e156, (±)-4-[3-[(4,5-Dichloro-1-methyl-indole-2-carbonyl)amino]tetrahydro-furan-3-yl]-2-ethyl-benzoic acid]	1000 to 5000
Cn1c(C(=O)NC2(c3ccc(C(=O)O)cc3Cl)CCOC2)cc2c(Cl)c(Cl)ccc21 (racemic) [I-107 e24]	1 to 1000
CC(C)CC(C(=O)O)c1ccc(C2(NC(=O)c3cc4c(Cl)c(Cl)ccc4n3C)COC2)cc1 (racemic) [I-9 e137, (±)-2-(4-(3-(4,5-Dichloro-1-methyl-1H-indole-2-carboxamido)oxetan-3-yl)phenyl)-4-methylpentanoic acid]	1 to 1000
COc1ccc2c(cc(C(=O)NC3(c4ccc(C(=O)O)cc4Cl)COC3)n2C)c1Cl [I-65 e69]	1 to 1000
Cn1c(C(=O)NC2(c3ccc(C(=O)O)nc3)CCOC2)cc2c(Cl)c(Cl)ccc21 (racemic) [I-73 e28]	1000 to 5000
Cn1c(C(=O)NC2(c3ccc(Cc4nnn[nH]4)cc3)COC2)cc2c(Cl)c(Cl)ccc21 [I-41 e92]	1 to 1000
COc1ccc2c(cc(C(=O)NC3(c4ccc(C(=O)O)cc4)CCOC3)n2C)c1Cl (racemic) [I-122 e26]	1 to 1000
CCN1CCC(NC(=O)c2cc3c(Cl)c(Cl)ccc3n2C)(c2ccc(C(=O)O)cc2)C1 (racemic) [I-126 e18]	5000 to 10000
CCC(C(=O)O)c1ccc(C2(NC(=O)c3cc4c(Cl)c(OC)ccc4n3C)COC2)cc1 (racemic) [I-43 e126]	1 to 1000
CC(C(=O)O)c1ccc(C2(NC(=O)c3cc4c(Cl)c(Cl)ccc4n3C)CCOC2)cc1 (racemic) [I-105 e152, (±)-2-[4-[3-[(4,5-dichloro-1-methyl-indole-2-carbonyl)amino]tetrahydrofuran-3-yl]phenyl]propanoic acid]	1 to 1000
Cn1c(C(=O)NC2(c3ccc(CC(=O)O)cc3C#N)CCOC2)cc2c(Cl)c(Cl)ccc21 (racemic) [I-71 e158, (±)-2-[3-Cyano-4-[3-[(4,5-dichloro-1-methyl-indole-2-carbonyl)amino]tetrahydro-furan-3-yl]phenyl]acetic acid]	1000 to 5000

Compound	IC50 [nM]
COc1ccc2c(cc(C(=O)NC3(c4ccc(CC(=O)O)cc4Cl)COC3)n2C)c1Cl [I-32 e64]	1 to 1000
Cn1c(C(=O)NC2(c3ccc(C(=O)O)cc3)CCOC2)cc2c(Cl)c(F)ccc21 (racemic) [I-106 e31]	1000 to 5000
COc1cc2c(cc(C(=O)NC3(c4ccc(C(=O)O)cc4Cl)COC3)n2C)c(Cl)c1C [I-46 e73]	1 to 1000
Cn1c(C(=O)NC2(c3ccc(CC(=O)O)cc3F)COC2)cc2c(Cl)c(Cl)ccc21 [I-90 e43]	1 to 1000
COc1ccc2c(cc(C(=O)NC3(c4ccc(C(C(=O)O)C5CCNCC5)cc4)COC3)n2C)c1Cl (racemic) [I-159 e121]	1 to 1000
COc1cc2c(cc(C(=O)NC3(c4ccc(C(C(=O)O)C5CCCC5)cc4)COC3)n2C)c(Cl)c1Cl (racemic) [I-22 e118]	1 to 1000
Cn1c(C(=O)NC2(c3ccc(C(=O)O)cc3)CCOC2)cc2c(Cl)c(Cl)c(OCC3CNC(=O)O3)cc21 (racemic) [I-111 e95]	1 to 1000
COc1ccc2c(cc(C(=O)NC3(c4ccc(C(C)C(=O)O)cc4)COC3)n2C)c1Cl (racemic) [I-67 e59]	1 to 1000
COc1cc2c(cc(C(=O)NC3(c4ccc(C(=O)O)cc4)CCOC3)n2C)c(Cl)c1Cl (racemic) [I-115 e33]	1 to 1000
COc1ccc2c(cc(C(=O)NC3(c4ccc(C(C)C(=O)O)cc4F)CCOC3)n2C)c1Cl (racemic) [I-40 e55]	1 to 1000
COc1ccc2c(cc(C(=O)NC3(c4ccc(CC(=O)O)cc4)COC3)n2C)c1Cl [I-103 e39]	1 to 1000
CC(C)C(C(=O)O)c1ccc(C2(NC(=O)c3cc4c(Cl)c(Cl)ccc4n3C)COC2)cc1 (racemic) [I-30 e134]	1 to 1000
COc1cc2c(cc(C(=O)NC3(c4ccc(CC(=O)O)cc4F)COC3)n2C)c(Cl)c1C [I-62 e46]	1 to 1000
Cn1c(C(=O)NC2(c3ccc(C(=O)O)cc3)CCOC2)cc2c(Cl)c(Cl)c(OCC3CCOC3)cc21 (racemic) [I-92 e101]	1 to 1000
COc1cc2c(cc(C(=O)NC3(c4ccc(C(C)(C)C(=O)O)cc4F)CCOC3)n2C)c(Cl)c1Cl (racemic) [I-53 e80]	1 to 1000
CC(C(=O)O)c1ccc(C2(NC(=O)c3cc4c(Cl)c(Cl)ccc4n3C)COC2)c(Cl)c1 (centres unmarked) [I-33 e62]	1 to 1000
COc1cc2c(cc(C(=O)NC3(c4ccc(C(C(=O)O)C5CC5)cc4)CCOC3)n2C)c(Cl)c1Cl (racemic) [I-163 e163, (±)-2-Cyclopropyl-2-(4-(3-(4,5-dichloro-6-methoxy-1-methyl-1H-indole-2-carboxamido)tetrahydrofuran-3-yl)phenyl)acetic acid]	1 to 1000
COc1ccc2c(cc(C(=O)NC3(c4ccc(C(=O)NS(C)(=O)=O)cc4)COC3)n2C)c1Cl [I-162 e165, 4-Chloro-5-methoxy-1-methyl-N-(3-(4-((methylsulfonyl)carbamoyl)-phenyl)oxetan-3-yl)-1H-indole-2-carboxamide]	1 to 1000
COc1cc2c(cc(C(=O)NC3(c4ccc(C(CC5CC5)C(=O)O)cc4)COC3)n2C)c(Cl)c1Cl (racemic) [I-4 e123]	1 to 1000
Cn1c(C(=O)NC2(c3ccc(C(C)(C)C(=O)O)cc3)CCOC2)cc2c(Cl)c(Cl)ccc21 (racemic) [I-87 e37]	1 to 1000
